Reference: ChEMBL document CHEMBL3045985, “Three-dimensional common-feature hypotheses for hypoglycemic flavonyl-2,4-thiazolidinedione derivatives” (2010)

How the values were obtained:
Assay type in all cases: functional
INS1 [1] = experiment: Hypoglycemic activity in Rattus norvegicus (rat) INS1 cells assessed as glucose-mediated insulin release after 90 min (reference value: 62.96 +/- 5.68 to 69.70 +/- 4.98 %)
INS1 [2] = experiment: Hypoglycemic activity in Rattus norvegicus (rat) INS1 cells assessed as insulin release at 5.6 mmol/l after 90 min (reference value: 62.96 +/- 5.68 to 69.70 +/- 4.98 %)
INS1 [3] = experiment: Hypoglycemic activity in Rattus norvegicus (rat) INS1 cells assessed as glucose-mediated insulin release at 1 ug/ml after 90 min (reference value: 62.96 +/- 5.68 to 69.70 +/- 4.98 %)
INS1 [4] = experiment: Hypoglycemic activity in Rattus norvegicus (rat) INS1 cells assessed as glucose-mediated insulin release at 10 umol/l after 90 min (reference value: 62.96 +/- 5.68 to 69.70 +/- 4.98 %)

Structure (SMILES)	Activity (INS1 [1])	further results
O=C1NC(=S)N/C1=C\c1ccc(-c2cc(=O)c3ccccc3o2)cc1	130.3%	
CN1C(=O)/C(=C/c2ccc(-c3cc(=O)c4ccccc4o3)cc2)N(C)C1=S	114.3%	
CCN1C(=O)/C(=C/c2ccc(-c3cc(=O)c4ccccc4o3)cc2)N(CC)C1=S	96.27%	
O=C1NC(=O)C(Cc2cccc(-c3cc(=O)c4ccccc4o3)c2)S1 (stereo not drawn)	69.89%	
O=C1NC(=O)/C(=C\c2cccc(-c3cc(=O)c4ccccc4o3)c2)S1	79.76%	
CN1C(=O)S/C(=C/c2cccc(-c3cc(=O)c4ccccc4o3)c2)C1=O	134.9%	
CCN1C(=O)S/C(=C/c2cccc(-c3cc(=O)c4ccccc4o3)c2)C1=O	299%	
O=C1NC(=O)/C(=C\c2cccc(-c3cc(=O)c4ccccc4o3)c2)N1	103.3%	
CN1C(=O)/C(=C\c2cccc(-c3cc(=O)c4ccccc4o3)c2)N(C)C1=O	218.3%	
CCN1C(=O)N/C(=C/c2cccc(-c3cc(=O)c4ccccc4o3)c2)C1=O	167.8%	
O=C1NC(=S)N/C1=C/c1cccc(-c2cc(=O)c3ccccc3o2)c1	247.1%	
CN1C(=O)/C(=C\c2cccc(-c3cc(=O)c4ccccc4o3)c2)N(C)C1=S	102.8%	
CCN1C(=O)/C(=C\c2cccc(-c3cc(=O)c4ccccc4o3)c2)NC1=S	129.6%	
O=C1NC(=O)C(Cc2ccc(-c3cc(=O)c4ccccc4o3)cc2)S1 (stereo not drawn)	135.5%	
CN1C(=O)S/C(=C\c2ccc(-c3cc(=O)c4ccccc4o3)cc2)C1=O	145.1%	
CCN1C(=O)S/C(=C\c2ccc(-c3cc(=O)c4ccccc4o3)cc2)C1=O	117.9%	
O=C1NC(=O)/C(=C/c2ccc(-c3cc(=O)c4ccccc4o3)cc2)N1	105.1%	
CN1C(=O)/C(=C/c2ccc(-c3cc(=O)c4ccccc4o3)cc2)N(C)C1=O	103.4%	
CCN1C(=O)/C(=C/c2ccc(-c3cc(=O)c4ccccc4o3)cc2)N(CC)C1=O	127.1%	
O=C1NC(=O)/C(=C/c2ccc(-c3cc(=O)c4ccccc4o3)cc2)S1	55.7%	
OC[C@H]1OC(O)[C@H](O)[C@@H](O)[C@@H]1O (stereo partly drawn) [DEXTROSE]		Activity (INS1 [2]): 100%
COc1ccc(Cl)cc1C(=O)NCCc1ccc(S(=O)(=O)NC(=O)NC2CCCCC2)cc1 [GLYBURIDE]		Activity (INS1 [3]): 210.4%
CN(CCOc1ccc(CC2SC(=O)NC2=O)cc1)c1ccccn1 (stereo not drawn) [ROSIGLITAZONE]		Activity (INS1 [4]): 116%
